Measured values taken from paper PMC5898002, “Overexpression of a type III PKS gene affording novel violapyrones with enhanced anti-influenza A virus activity” (Microbial Cell Factories, 2018).
pIC50: −log10 of the molar value.

How the values were obtained:
[1] = system: influenza virus A/PR8/34 (H1N1); experiment: microbe, parasite or virus in culture; assay type: cell-based; details: MDCK cells, MOI = 1.0 (table footnote), 48 h post-infection, mean of n = 4, read-out: IC50: concentration required to inhibit influenza virus A/PR8/34 (H1N1) yield at 48 h post-infection by 50%
[2] = cytotoxicity in MDCK cell by MTT assay; details: dog, MDCK cells, CC50: concentration required to reduce MDCK cell viability by 50%, mean of n = 3
MDCK cells = details: dog, 48 h
in vitro = details: dog, CC50: concentration required to reduce MDCK cell viability by 50%

Structure (SMILES)	pIC50 [1]	CC50 at 48 h [2] [mM]	CC50 (MDCK cells) [mM]	CC50 at 48 h (in vitro) [mM]
NC(=O)c1ncn([C@@H]2O[C@H](CO)[C@@H](O)[C@H]2O)n1 [Ribavirin, reference compound]	3.95	1.52		
CCCCCCCc1cc(O)c(C)c(=O)o1 [Compound 11, VLP I]	3.95	2.2		
Cc1c(O)cc(CCCCC(C)C)oc1=O [Compound 10, Violapyrone B]	< 3.70		> 1.5	> 1.4
CCc1c(O)cc(CCCCC(C)C)oc1=O [Compound 12, VLP P]	4.57	1.57		
CCC(C)CCCCc1cc(O)c(C)c(=O)o1 (stereo not shown) [Compound 13, VLP C]	3.97	1.62		
Cc1c(O)cc(CCCCCC(C)C)oc1=O [Compound 14, VLP H]	4.54	1.45		
